The text below walks through data of US11696903B2, “Compounds and methods for scavenging dicarbonyl electrophiles” (VANDERBILT UNIVERSITY, priority 2019, dated 2023).

Test [1] deals with LG-histone adducts in A549 cells. Kind of test: LG-lysyl adduct formation on histones in A549 cells (LC/ESI/MS/MS). The test is classed as cell-based, human. Particulars: COX-2-stimulated A549, 20 μM AA, 50 μM indomethacin preincubated 45 min. How it is done: FIGS. 11A, 11B, 11C, 11D, 11E, and 11F are a series of graphs showing that LG-lysine adducts of histones are found in cells and tissue, dependent on COX-2 activity. RAW264.7 mouse macrophage (A) and A549 human lung carcinoma (C) cells were stimulated to express COX-2, then given 20 μM arachidonic acid (AA) or vehicle. A subgroup of cells was preincubated 45 min with 50 μM indomethacin. As a measure of COX activity, PGE2 was determined by GC/MS from cell media prior to lysis (B and D). Nuclei were isolated, and histones were extracted and digested to individual amino acids prior to LC/EST/MS/MS analysis. *, p<0.05; ***, p<0.001 by ANOVA followed by Tukey's post-test (n≥5). (E). Histones were extracted from nuclei of rat liver, and analyzed as above for LG-lactam adduct. COX-2 protein was analyzed by Western blotting and plotted against lactam adduct levels. Each point corresponds to 1 liver, and shown is the line of regression (r^2=0.7237). Pearson r=0.8507; two-tailed p=0.0152. […]
(A). […] Histone proteins were analyzed by LC/ESI/MS/MS for LG-lysyl lactam adduct, n=2. (B) Stimulated A549 cells were pretreated with 30, 300, or 1000 μM EtSA prior to 1 h with 20 μM AA, and histones analyzed for LG-lysyl adduct. *, p<0.05 by one-way ANOVA followed by Dunnett's multiple comparisons post-test (n=3-5). […] Media was analyzed by GC/MS for PGE2 (n=3). […]

In test [2] the test system is LG-histone adducts in RAW264.7 cells. Kind of test: LG-lysyl adduct formation on histones in RAW264.7 cells (LC/ESI/MS/MS). The test is classed as cell-based, mouse. How it is done:
FIGS. 11A, 11B, 11C, 11D, 11E, and 11F are a series of graphs showing that LG-lysine adducts of histones are found in cells and tissue, dependent on COX-2 activity. RAW264.7 mouse macrophage (A) and A549 human lung carcinoma (C) cells were stimulated to express COX-2, then given 20 μM arachidonic acid (AA) or vehicle. A subgroup of cells was preincubated 45 min with 50 μM indomethacin. As a measure of COX activity, PGE2 was determined by GC/MS from cell media prior to lysis (B and D). Nuclei were isolated, and histones were extracted and digested to individual amino acids prior to LC/EST/MS/MS analysis. *, p<0.05; ***, p<0.001 by ANOVA followed by Tukey's post-test (n≥5). (E). Histones were extracted from nuclei of rat liver, and analyzed as above for LG-lactam adduct. COX-2 protein was analyzed by Western blotting and plotted against lactam adduct levels. Each point corresponds to 1 liver, and shown is the line of regression (r^2=0.7237). Pearson r=0.8507; two-tailed p=0.0152. (F) LC-MS chromatograph of histones isolated from a rat liver with relatively high COX-2 expression (COX-2 band intensity of 117 arbitrary units).
(A). Scavengers were screened in RAW264.7 cells for the ability to decrease LG adduct formation on histones. Scavengers used were glucosamine (GA), 3-methoxysalicylamine (3-MoSA), pentylpyridoxamine (PPM), and 5-ethylsalicylamine (EtSA). Cells were stimulated to express COX-2, pretreated 45 min. with 500 μM scavenger or vehicle (H2O), and given 20 μM AA for 1 h before lysing and extracting histones. Histone proteins were analyzed by LC/ESI/MS/MS for LG-lysyl lactam adduct, n=2. (B) Stimulated A549 cells were pretreated with 30, 300, or 1000 μM EtSA prior to 1 h with 20 μM AA, and histones analyzed for LG-lysyl adduct. *, p<0.05 by one-way ANOVA followed by Dunnett's multiple comparisons post-test (n=3-5). (C). A549 cells were stimulated, pretreated 45 min. with 1000 μM EtSA or H2O vehicle, and given 20 μM AA for 1 h. Media was analyzed by GC/MS for PGE2 (n=3). There was no effect on PGE2 production at lower doses of EtSA (data not shown).
To stimulate COX-2 expression, A549 or RAW264.7 cells were treated overnight with 5 ng/mL IL-1B (A549) or 10 μg/mL LPS and 10 U/mL IFNγ (RAW264.7) in serum-free medium. When indicated, cells were pretreated with indomethacin, aldehyde scavengers (glucosamine, 3-MoSA, PPM or EtSA), or vehicle (ethanol for indomethacin, H2O for scavengers) for 45 min, and then given 20 μM arachidonic acid (AA) or DMSO vehicle for 1 h before lysing.
Cultured cells were lysed in hypotonic buffer (10 mM Tris/10 mM NaCl/3 mM MgCl2) containing 1 mM pyridoxamine and 100 μM indomethacin to prevent the artifactual formation of LGE2 during the lytic process. […] Protein concentration was determined using the method of Bradford. […]

Test [3] can be described thus: Reaction rate of scavengers with dicarbonyl electrophiles / LG relative to lysine. Particulars: faster than lysine. The source says: Under conditions such as inflammation and/or accumulated mutations, epithelial cells and adjacent immune cells express genes encoding enzymes involved in carcinogenesis, such as prostaglandin-endoperoxide synthase (PGHS2; COX2), NADPH oxidases, and spermine oxidase. The products of these enzymes (prostaglandins, O2D, and H2O2 plus 3-aminopropanal) lead to formation of dicarbonyl electrophiles: levuglandins (LGs), malondialdehyde (MDA), 4-oxo-nonenal (4-O NE), and acrolein. Electrophiles may lead to immune dysfunction and neoplastic risk by forming adducts with proteins and DNA11-15. However, the role of these reactive aldehydes in colon carcinogenesis is previously unknown. The present inventors have discovered that the level of LG-protein adducts is increased in the colon tissues of i) human ulcerative colitis (UC), colitis-associated carcinogenesis (CAC), and CRC; ii) mice treated with azoxymethane-dextran sulfate sodium (AOM-DSS), a model of CAC; and iii) transgenic mice with a tamoxifen-inducible disruption of Apc using the colon-specific, caudal type homeobox 2 (CDX2) Cre (CDX2P-CreERT2;Apcff), which recapitulates sporadic/genetically-driven CRC. […]

Another test has as its system oxidative damage. The conditions noted are these: mice; cited from earlier work.
In the next test the test system is lysyl-LG adducts. Kind of test: Lysyl-LG adducts in gastric tissues of H. pylori-infected mice (LC/ESI/MS/MS). The test is classed as in vivo. Particulars: H. pylori infected mice treated for 8 weeks. The protocol:
FIGS. 15A, 15B, and 15C are graphs showing C57BL/6 (A) or INS-GAS mice (B) were infected for 8 weeks with H. pylori PMSS1. Lysyl-LG adducts were measured in the gastric tissues by LC/ESI/MS/MS. *P<0.05. (C) Lysyl-LG adducts concentration was determined in AGS cells infected (plain bars) or not (open bars) with H. pylori PMSS1 for 24 h, in the presence or absence of EtSA. *P<0.05 vs. uninfected cells. § P<0.05 vs. infected cells without EtSA.
FIG. 17 is a graph showing reduction in the concentration of lysyl-levuglandin adducts in the stomachs of H. pylori infected mice treated with 2-hydroxybenzylamine for 8 weeks.
As discussed further in the Examples, the human gastric epithelial cell line AGS was infected with Hp PMSS1±10 mM EtSA. FVB/N insulin-gastrin (INS-GAS) mice and Mongolian gerbils were infected for 8 wk with Hp PMSS1 and 7.13, respectively; EtSA (0.75% in water) was given to animals beginning one wk post-infection. Lys-LG adducts, a marker of electrophile reactions, and EtSA were quantified by LC/EST/MS/MS. Histology was analyzed on H&E staining. DNA damage was evaluated by pH2AX staining. Hp colonization was quantified by culture. Mucosal immune responses were determined by RNA profiling and by Luminex assay. Mice were imaged using PET/CT with ^18F-FDG (inflammation marker) and ^18F—NaF (tumor marker). […]

As to `COc1ccc2c(c1)c(CC(=O)O)c(C)n2C(=O)c1ccc(Cl)cc1` [indomethacin, reference compound], the LG-histone adduct formation result in test [1] was “blocked”; in test [2] (COX-2-stimulated RAW264.7, 20 μM AA, 50 μM indomethacin preincubated 45 min), “blocked”.

Regarding pentylpyridoxamine [reference compound], the “LG adduct formation on histones” value in test [2] (stimulated RAW264.7, 500 μM scavenger 45 min, 20 μM AA 1 h) was “partially inhibited”.

In the case of `NCc1ccccc1O` [2-HOBA, 2-hydroxybenzylamine], in test [3], the “rate of reaction with dicarbonyl electrophiles” value was 3 orders of magnitude. Further, the “oxidative damage in models of hypertension and Alzheimer's disease” value in the test with oxidative damage was “protects mice from oxidative damage”. Also, the “concentration of lysyl-levuglandin adducts in the stomachs” value in the test with lysyl-LG adducts is on record as “reduction”.
